This note sets out measurements from US9783488B2 (CHDI Foundation, Inc., priority 2013, dated 2017).

For assay [1], the system named is cellular histone deacetylase enzymatic activity in Jurkat E6-1 cells. The assay can be described thus: Inhibition of cellular HDAC activity in Jurkat E6-1 cells, fluorogenic substrate Boc-Lys(Tfa)-AMC. It counts as cell-based. As to conditions: Homo sapiens, read-out: Cell IC50. From the text: Analysis of Inhibition of Cellular HDAC Activity with Class IIa Histone Deacetylase (HDAC) Inhibitors
The potency of Class IIa Histone Deacetylase (HDAC) inhibitors is quantified by measuring the cellular histone deacetylase enzymatic activity using the fluorogenic substrate, Boc-Lys(Tfa)-AMC. After penetration in Jurkat E6-1 cells, the substrate is deacetylated to Boc-Lys-AMC. After cell lysis and cleavage by trypsin, the fluorophore AMC is released from the deacetylated substrate only. The fluorescence of the sample is directly related to the histone deacetylase activity in the sample.
Jurkat E6.1 cell culture and plating. Jurkat E6.1 cells are cultured according to standard cell culture protocols in Jurkat E6.1 Growth Media (RPMI without phenol red, 10% FBS, 1 mM HEPES, and 1 mM Sodium Pyruvate). Jurkat E6.1 cells are counted using a Coulter Counter and resuspended in Jurkat E6.1 growth media at a concentration of 75,000 cells/35 μl. 35 μl or 75,000 cells is seeded into Greiner microtitre assay plates. The plates are then incubated at 37° C. and 5% CO2 while other assay components are being prepared.
Serially dilute HDAC inhibitor compounds. Serial dilutions of the HDAC inhibitors and control reference compound (1-(5-(3-((4-(1,3,4-oxadiazol-2-yl)phenoxy)methyl)-1,2,4-oxadiazol-5-yl)thiophen-2-yl)-2,2,2-trifluoroethanone) are made by first resuspending the lyophilized compound to a final concentration of 10 mM in […]. Stocks of 70 μl aliquots of the 10 mM compound in DMSO are prepared and stored at −20° C. From one stock aliquot of each compound to be tested and the reference compound, a 16-point serial dilution is prepared according to Table 1 using a 125 μl 16-channel Matrix multi-channel pipette.
2 μl (200×) of each diluted solution and each control (full activity: 100% DMSO alone or full inhibition 1 mM) is stamped into V-bottom polypropylene 384-well compound plates using either the Bravo, Janus, or 12.5 μl 16-channel Matrix multi-channel pipette. Each well with the 200× compound solution is diluted 1:20 by the addition of 38 μl Jurkat assay buffer+DMSO (9.5% DMSO, RPMI without phenol red, 0.09% FBS, 9 mM Hepes, and 0.9 mM Sodium Pyruvate equilibrated to r.t.)
Prepare 5× (500 μM) Boc-Lys(Tfa)-AMC substrate. 5× (500 μM) substrate is prepared just prior to the addition to the assay. The 5× substrate is prepared by diluting a 100 mM Boc-Lys(Tfa)-AMC in DMSO solution 1:200 by adding it drop-wise to Jurkat assay medium (RPMI without phenol red, 0.1% FBS, 10 mM Hepes, and 1 mM Sodium Pyruvate equilibrated to 37° C.) while vortexing at slow speed to prevent precipitation.
Prepare 3× Lysis Buffer. 10 mL of 3× lysis buffer is prepared with 8.8 mL of 3× stock lysis buffer (50 mM Tris-HCl, pH 8.0, 137 mM NaCl, 2.7 mM KCl, 1 mM MgCl2, 1% Nonidet P40 Substitute equilibrated to r.t.) and 1.2 mL of 3 mg/mL Trypsin equilibrated to r.t.
Assay. 5 μl of each solution of 1:20 diluted compound from above is transferred to the Greiner microtitre assay plates with 75,000 cells/well using the Bravo. Cells are then incubated for 2 hours at 37° C. and 5% CO2. The assay is then started by adding 10 μl of 5× (500 μM) substrate to the assay plate using either the Bravo or 16-channel Matrix multi-channel pipette. The cells are then incubated for 3 hours at 37° C. and 5% CO2. Next, 25 μl of 3× lysis buffer is added to each well using either the 125 μl 16 channel pipette or the Bravo. The assay plate is then incubated overnight (15-16 hours) at 37° C. and 5% CO2. The following day, the plates are shaken on an orbital shaker for 1 minute at 900 rpm. Finally the top read fluorescence (Excitation: 355 nm, Emission: 460 nm) is measured using PerkinElmer EnVision.

Assay [2] addresses human catalytic domain HDAC4 protein (amino acids 648-1032) (Homo sapiens (Human), UniProt P56524). Kind of assay: Inhibition of HDAC4 catalytic domain enzymatic activity, fluorogenic substrate Boc-Lys(Tfa)-AMC. As to conditions: HDAC4 catalytic domain enzyme, read-out: Biochemical HDAC4 IC50. From the text: Analysis of Inhibition of HDAC4 with Class IIa Histone Deacetylase (HDAC) Inhibitors
The potency of Class IIa Histone Deacetylase (HDAC) inhibitors is quantified by measuring the Histone Deacetylase 4 (HDAC4) catalytic domain enzymatic activity using the fluorogenic substrate, Boc-Lys(Tfa)-AMC. The substrate is deacetylated to Boc-Lys-AMC by HDAC4. Cleavage by trypsin results in the release of the fluorophore AMC from the deacetylated substrate. The fluorescence of the sample is directly related to the histone deacetylase activity in the sample.
Serially dilute HDAC inhibitor compounds. […] Stocks of 6 μl aliquots of the 10 mM compound in DMSO are prepared and stored at […]. From one stock aliquot of each compound to be tested and the reference compound, a 16-point serial dilution is prepared according to Table 1 using a 125 μl 16-channel Matrix multi-channel pipette (Matrix Technologies Ltd).
2 μl (200×) of each diluted solution and each control (full activity: 100% DMSO alone or full inhibition 1 mM) is stamped into V-bottomed polypropylene 384-well compound plates using either the Bravo (384-well head from Agilent) or 12.5 μl 16-channel Matrix multi-channel pipette (Matrix Technologies Ltd).
Prepare HDAC4 catalytic domain enzyme (0.2 μg/mL).
Prepare 5× ([…]) Boc-Lys(Tfa)-AMC Substrate. 5× (50 μM) substrate is prepared just prior to the addition to the assay. A 1 mM substrate stock is made by diluting a 100 mM Boc-Lys(Tfa)-AMC in DMSO solution 1:100 by adding it drop-wise to assay buffer (equilibrated to r.t.) while vortexing at slow speed to prevent precipitation. The 5× substrate is prepared by diluting the 1 mM substrate solution 1:20 by adding it drop-wise to assay buffer (equilibrated to r.t.) while vortexing at slow speed to prevent precipitation.
Prepare 3× (30 μM) Developer/Stop Solution.
Assay. 5 μl of each solution of 1:20 diluted compound from above is transferred to a clear bottomed, black, 384-well assay plate using the Bravo or the Janus (384-well MDT head from Perkin Elmer). Using a 16-channel Matrix multi-channel pipette, 35 μl of the working solution of HDAC4 catalytic domain enzyme (0.2 μg/mL in assay buffer) is transferred to the assay plate. […] The assay plate is then shaken for two minutes on an orbital shaker at 900 rpm (rotations per minute). Next the plate is incubated for 15 minutes at 37° C. The reaction is stopped by adding 25 μl of 3× (3 μM) developer/stop solution to the assay plates using either the Bravo, Janus or a 16-channel Matrix multi-channel pipette. Assay plates are then shaken for 5 minutes on an orbital shaker at 1200 rpm. Next, the assay plates are incubated at 37° C. for 1 hour in a tissue culture incubator.

What is called IC50 is the midpoint of a concentration-inhibition curve.

Sequence of human catalytic domain HDAC4 protein (amino acids 648-1032) (P56524 648-1032): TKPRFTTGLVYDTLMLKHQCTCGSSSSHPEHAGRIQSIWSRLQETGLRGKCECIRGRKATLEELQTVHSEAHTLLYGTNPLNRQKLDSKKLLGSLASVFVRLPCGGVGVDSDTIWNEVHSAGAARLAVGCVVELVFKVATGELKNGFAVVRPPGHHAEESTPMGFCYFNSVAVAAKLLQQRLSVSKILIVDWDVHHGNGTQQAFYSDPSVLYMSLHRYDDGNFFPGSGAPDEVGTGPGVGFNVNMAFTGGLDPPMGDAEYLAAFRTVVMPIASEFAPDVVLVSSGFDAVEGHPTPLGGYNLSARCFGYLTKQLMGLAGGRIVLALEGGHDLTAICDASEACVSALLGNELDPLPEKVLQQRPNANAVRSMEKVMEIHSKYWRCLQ

On to `Cc1c(F)cccc1[C@]1(C(=O)NO)CC[C@@H](c2ccc3cn[nH]c3c2F)C1` (relative stereo) [Example 61, (1S,3R*)-3-(7-fluoro-1H-indazol-6-yl)-1-(3-fluoro-2-methylphenyl)-N-hydroxycyclopentanecarboxamide], for which the IC50 in assay [1] is 0.081 µM; in assay [2], 0.073 µM.

`Cc1c(F)cccc1[C@]1(C(=O)NO)CC[C@@H](c2ccc3oc(C4CC4)nc3c2)C1` (relative stereo) [Example 62, (1S,3R*)-3-(2-cyclopropylbenzo[d]oxazol-5-yl)-1-(3-fluoro-2-methylphenyl)-N-hydroxycyclopentanecarboxamide]: the IC50 is 0.41 µM in assay [1] and 0.28 µM in assay [2].

As to `Cc1c(F)cccc1[C@]1(C(=O)NO)CC[C@@H](c2ccc3c(cnn3C)c2)C1` (relative stereo) [Example 63, (1S,3R*)-1-(3-fluoro-2-methylphenyl)-N-hydroxy-3-(1-methyl-1H-indazol-5-yl)cyclopentanecarboxamide], the IC50 in assay [1] worked out at 0.14 µM; in assay [2], 0.11 µM.

For `Cc1c(F)cccc1[C@]1(C(=O)NO)CC[C@H](c2ccc3c(cnn3C)c2)C1` (relative stereo) [Example 64, (1S,3S*)-1-(3-fluoro-2-methylphenyl)-N-hydroxy-3-(1-methyl-1H-indazol-5-yl)cyclopentanecarboxamide], the IC50 in assay [1] was 0.22 µM; in assay [2], 0.1 µM.

As for `Cc1c(F)cccc1[C@]1(C(=O)NO)CC[C@@H](c2ccc3cn(C(F)F)nc3c2)C1` (relative stereo) [Example 65, (1S,3R*)-3-(2-(difluoromethyl)-2H-indazol-6-yl)-1-(3-fluoro-2-methylphenyl)-N-hydroxycyclopentanecarboxamide], the IC50 in assay [1] was 0.099 µM; in assay [2] it was 0.11 µM.

`Cc1c(F)cccc1[C@]1(C(=O)NO)CC[C@H](c2ccc3cn(C(F)F)nc3c2)C1` (relative stereo) [Example 66, (1S,3S*)-3-(2-(difluoromethyl)-2H-indazol-6-yl)-1-(3-fluoro-2-methylphenyl)-N-hydroxycyclopentanecarboxamide]: the IC50 in assay [1] turned out to be 0.19 µM; in assay [2], 0.22 µM.

`Cc1c(F)cccc1[C@]1(C(=O)NO)CC[C@@H](c2ccc3c(F)nn(C)c3c2)C1` (relative stereo) [Example 67, (1S,3R*)-3-(3-fluoro-1-methyl-1H-indazol-6-yl)-1-(3-fluoro-2-methylphenyl)-N-hydroxycyclopentanecarboxamide]: the figures for the IC50 in assay [1] and in assay [2] were 0.36 µM and 0.4 µM, respectively.

As for `Cc1c(F)cccc1[C@]1(C(=O)NO)CC[C@H](c2ccc3c(F)nn(C)c3c2)C1` (relative stereo) [Example 68, (1S,3S*)-3-(3-fluoro-1-methyl-1H-indazol-6-yl)-1-(3-fluoro-2-methylphenyl)-N-hydroxycyclopentanecarboxamide], the IC50 in assay [1] worked out at 0.21 µM; in assay [2], 0.32 µM.

For `Cc1c(F)cccc1[C@]1(C(=O)NO)CC[C@@H](c2ccc3c(c2)ncn3C)C1` (relative stereo) [Example 69, (1S,3R*)-1-(3-fluoro-2-methylphenyl)-N-hydroxy-3-(1-methyl-1H-benzo[d]imidazol-5-yl)cyclopentanecarboxamide], the IC50 in assay [1] is 0.2 µM; in assay [2], 0.09 µM.

On to `Cc1c(F)cccc1[C@]1(C(=O)NO)CC[C@@H](c2ccc3ncn(C)c3c2)C1` (relative stereo) [Example 70, (1S,3R*)-1-(3-Fluoro-2-methylphenyl)-N-hydroxy-3-(1-methyl-1H-benzo[d]imidazol-6-yl)cyclopentanecarboxamide], for which the IC50 is 0.13 µM in assay [1] and 0.11 µM in assay [2].

Turning to `Cc1c(F)cccc1[C@]1(C(=O)NO)CC[C@H](c2ccc3ncn(C)c3c2)C1` (relative stereo) [Example 71, (1S,3S*)-1-(3-Fluoro-2-methylphenyl)-N-hydroxy-3-(1-methyl-1H-benzo[d]imidazol-6-yl)cyclopentanecarboxamide], the IC50 stood at 0.11 µM in assay [1] and 0.059 µM in assay [2].

On to `Cc1c(F)cccc1[C@]1(C(=O)NO)CC[C@@H](c2ccc3c(c2)NCC(C)(C)O3)C1` (relative stereo) [Example 72], for which the IC50 worked out at 0.47 µM in assay [1] and 0.3 µM in assay [2].

For `Cc1c(F)cccc1[C@]1(C(=O)NO)CC[C@H](c2ccc3c(c2)NCC(C)(C)O3)C1` (relative stereo) [Example 73], the figures for the IC50 in assay [1] and in assay [2] were 0.41 µM and 0.27 µM, respectively.

As for `Cc1c(F)cccc1[C@]1(C(=O)NO)CC[C@@H](c2ccc3nc(C(F)(F)F)[nH]c3c2)C1` (relative stereo) [Example 74, (1S,3R*)-1-(3-Fluoro-2-methylphenyl)-N-hydroxy-3-(2-(trifluoromethyl)-1H-benzo[d]imidazol-6-yl)cyclopentanecarboxamide], the IC50 came out at 0.11 µM in assay [1] and 0.074 µM in assay [2].

As for `Cc1c(F)cccc1[C@]1(C(=O)NO)CC[C@H](c2nc3ccccc3s2)C1` (relative stereo) [Example 75, (1S,3S*)-3-(Benzo[d]thiazol-2-yl)-1-(3-fluoro-2-methylphenyl)-N-hydroxycyclopentanecarboxamide], the figures for the 50% inhibitory concentration (IC50) in assay [1] and in assay [2] were 0.16 µM and 0.08 µM, respectively.

In the case of `Cc1c(F)cccc1[C@]1(C(=O)NO)CC[C@@H](c2nc3ccccc3s2)C1` (relative stereo) [Example 76, (1S,3R*)-3-(Benzo[d]thiazol-2-yl)-1-(3-fluoro-2-methylphenyl)-N-hydroxycyclopentanecarboxamide], the IC50 in assay [1] is 0.24 µM; in assay [2], 0.16 µM.
